# Experimental data as given in patent US5824771A, “Cyclic CRF agonists” (The Salk Institute for Biological Studies, priority 1997, dated 1998).
# Bridge positions count the residues as written; N and C are the ends. Square brackets hold non-standard residues; d marks the D form. Peptide text beside a SMILES is read from it. Nle = CCCC[C@H](N)C(=O)O
# Experiments:
# [1] = Relief of inflammation on administration; type: in vivo; settings: administration of the peptide
# [2] = system: ACTH and β-END-LI secretion; test: Secretion of ACTH and β-END-LI on administration of the peptide (in vivo testing)
# Procedure: The cyclic CRF agonists are examined for their effects on the secretion of ACTH and β-endorphin in vitro and also in vivo. […] In vivo testing is carried out using the general procedure set forth in C. Rivier et al., Science, 218, 377 (1982).
# [3] = Lowering of blood pressure on peripheral or iv administration; type: in vivo; settings: iv injection / administered intravenously
Molecule,"relief of inflammation, in words [1]","stimulation of secretion of ACTH and β-END-LI on administration of the peptide, in words [2]","lowering of blood pressure on iv injection, in words [3]"
"CCCC[C@H](NC(=O)[C@H](CCC(=O)O)NC(=O)[C@@H](NC(=O)[C@H](CCCC)NC(=O)[C@H](CC(N)=O)NC(=O)[C@H](CCCNC(=N)N)NC(=O)[C@H](CC(C)C)NC(=O)[C@H](CC(C)C)NC(=O)[C@H](Cc1c[nH]cn1)NC(=O)[C@@H](Cc1ccccc1)NC(=O)[C@@H](NC(=O)[C@H](CC(C)C)NC(=O)[C@H](CC(=O)O)NC(=O)[C@@H](NC(=O)[C@H](CO)NC(=O)[C@@H](NC(=O)[C@H]1CCCN1C(=O)[C@@H]1CCCN1C(C)=O)[C@@H](C)CC)[C@@H](C)CC)[C@@H](C)O)[C@@H](C)CC)C(=O)N[C@@H](C)C(=O)N[C@@H](CCCNC(=N)N)C(=O)N[C@@H](CC(N)=O)C(=O)N[C@@H](CCC(=O)O)C(=O)N[C@@H](CC(N)=O)C(=O)N[C@@H](CCC(N)=O)C(=O)N[C@@H](CCCNC(=N)N)C(=O)N[C@@H](CCC(=O)O)C(=O)N[C@H]1CCC(=O)NCCCC[C@@H](C(=O)N[C@@H](CC(N)=O)C(=O)N[C@@H](CCCNC(=N)N)C(=O)N[C@@H](CCCCN)C(=O)N[C@@H](Cc2ccc(O)cc2)C(=O)N[C@@H](CC(C)C)C(=O)N[C@@H](CC(=O)O)C(=O)N[C@@H](CCC(=O)O)C(=O)N[C@H](C(N)=O)C(C)C)NC(=O)[C@@H](Cc2c[nH]cn2)NC(=O)[C@H](C)NC1=O [Example 8 A, (cyclo 30-33)[Ac-Pro^4, D-Pro^5, D-Phe^12, Nle^18,21, Glu^30, D-His^32, Lys^33]-Carp Urotensin I(4-41)] (Ac-P[dP]ISIDLT[dF]HLLRN[Nle]IE[Nle]ARNENQREEA[dH]KNRKYLDEV-NH2; lactam 27-30)",relieves inflammation,,
"CCCC[C@H](NC(=O)[C@H](CCCCN)NC(=O)[C@H](CCCNC(=N)N)NC(=O)[C@H](CC(C)C)NC(=O)[C@H](CC(C)C)NC(=O)[C@H](CCC(=O)O)NC(=O)[C@@H](CC(C)C)NC(=O)[C@H](CO)NC(=O)[C@H](CC(C)C)NC(=O)[C@H](CC(=O)O)NC(=O)[C@@H](NC(=O)[C@H](CO)NC(=O)[C@@H](NC(=O)[C@H]1CCCN1C(=O)[C@@H]1CCCN1C(C)=O)[C@@H](C)CC)[C@@H](C)CC)C(=O)N[C@H](C(=O)N[C@@H](CCC(=O)O)C(=O)N[C@H](C(=O)N[C@@H](CCC(=O)O)C(=O)N[C@@H](CCCCN)C(=O)N[C@@H](CCC(N)=O)C(=O)N[C@@H](CCC(=O)O)C(=O)N[C@@H](CCCCN)C(=O)N[C@@H](CCC(=O)O)C(=O)N[C@@H](CCCCN)C(=O)N[C@@H](CCC(N)=O)C(=O)N[C@H]1CCC(=O)NCCCC[C@@H](C(=O)N[C@@H](CC(N)=O)C(=O)N[C@@H](CCCNC(=N)N)C(=O)N[C@@H](CC(C)C)C(=O)N[C@@H](CC(C)C)C(=O)N[C@@H](CC(C)C)C(=O)N[C@@H](CC(=O)O)C(=O)N[C@H](C(=O)N[C@H](C(N)=O)[C@@H](C)CC)[C@@H](C)O)NC(=O)[C@@H](Cc2c[nH]cn2)NC(=O)[C@H](C)NC1=O)[C@@H](C)CC)[C@@H](C)CC [Example 8 B, (cyclo 29-32)[Ac-Pro^3, D-Pro^4, D-Leu^11, Nle^17, Glu^29, D-His^31, Lys^32]-sauvagine(3-40)] (Ac-P[dP]ISIDLS[dL]ELLRK[Nle]IEIEKQEKEKQEA[dH]KNRLLLDTI-NH2; lactam 27-30)",relieves inflammation,,
"CCCC[C@H](NC(=O)[C@H](CCC(=O)O)NC(=O)[C@H](CC(C)C)NC(=O)[C@H](CCCC)NC(=O)[C@H](CCC(=O)O)NC(=O)[C@H](CCCNC(=N)N)NC(=O)[C@H](CC(C)C)NC(=O)[C@H](CC(C)C)NC(=O)[C@H](Cc1c[nH]cn1)NC(=O)[C@@H](Cc1ccccc1)NC(=O)[C@@H](NC(=O)[C@H](CC(C)C)NC(=O)[C@H](CC(=O)O)NC(=O)[C@H](CC(C)C)NC(=O)[C@H](CO)NC(=O)[C@@H](NC(=O)[C@H]1CCCN1C(=O)[C@@H]1CCCN1C(C)=O)[C@@H](C)CC)[C@@H](C)O)C(=O)N[C@@H](C)C(=O)N[C@@H](CCCCN)C(=O)N[C@@H](C)C(=O)N[C@@H](CCC(=O)O)C(=O)N[C@@H](CCC(N)=O)C(=O)N[C@@H](CCC(=O)O)C(=O)N[C@@H](C)C(=O)N[C@@H](CCC(=O)O)C(=O)N[C@H]1CCC(=O)NCCCC[C@@H](C(=O)N[C@@H](CC(N)=O)C(=O)N[C@@H](CCCNC(=N)N)C(=O)N[C@@H](CC(C)C)C(=O)N[C@@H](CC(C)C)C(=O)N[C@@H](CC(C)C)C(=O)N[C@@H](CCC(=O)O)C(=O)N[C@@H](CCC(=O)O)C(=O)N[C@@H](C)C(N)=O)NC(=O)[C@@H](Cc2c[nH]cn2)NC(=O)[C@H](C)NC1=O [Example 8 C, (cyclo 30-33)[Ac-Pro^4, D-Pro^5, D-Phe^12, Nle^18,21, Glu^30, D-His^32, Lys^33]-α-helical CRF(4-41)] (Ac-P[dP]ISLDLT[dF]HLLRE[Nle]LE[Nle]AKAEQEAEEA[dH]KNRLLLEEA-NH2; lactam 27-30)",relieves inflammation,,
"(cyclo 30-33)[Ac-Pro^4, D-Phe^12, CML^19, Nle^21,38, Glu^30, D-His^32, Lys^33 ]-r/hCRF (4-41) [Example 9 B]",,stimulates the secretion of ACTH and β-END-LI,lowers blood pressure
"(cyclo 30-33)[Ac-Pro^4, D-Phe^12, Nle^21,38, CML^27, Glu^30, D-His^32, Lys^33 ]-r/hCRF(4-41) [Example 9 C]",,stimulates the secretion of ACTH and β-END-LI,lowers blood pressure
"(cyclo 30-33)[Ac-Pro^4, D-Phe^12, Nle^21,38, Glu^30, D-His^32, Lys^33, CML^37 ]-r/hCRF(4-41) [Example 9 D]",,stimulates the secretion of ACTH and β-END-LI,lowers blood pressure
"(cyclo 30-33)[Ac-Pro^4,D-Phe^12, Nle^21,38, Glu^30, D-Amp^32, Lys^33 ]-r/hCRF(4-41) [Example 6 D]",,stimulates the secretion of ACTH and β-END-LI,lowers blood pressure
"(cyclo 30-33)[Ac-Ser^7, D-Phe^12, CML^18,27, Nle^21,38, Glu^30, Lys^33 ]-r/hCRF(7-41) [Example 20 C]",,stimulates the secretion of ACTH and β-END-LI,lowers blood pressure
